Laboratory results from article PMC5458211, “Mitochondrial VDAC1-based peptides: Attacking oncogenic properties in glioblastoma” (Oncotarget, 2017).

Test system: U-87MG intracranial xenograft tumors
Experiment: U-87MG intracranial-orthotopic xenograft, tumor volume by MRI
Assay type: in vivo, human U-87MG in nude mice
Experimental: B. U-87MG cells (2×10^5) were incubated for 12 h with the indicated concentrations of DMSO, Retro-Tf-D-LP4 peptide (Pep), or Retro-Tf-D-LP4 encapsulated in PLGA nanoparticles (PLGA-Pep). Samples of Retro-Tf-D-LP4 encapsulated in PLGA nanoparticles were centrifuged (15000g, 5 min) to separate the supernatant (Sup), containing free peptide, and the pellet, containing encapsulated Retro-Tf-D-LP4 peptide. Cell death was analyzed by PI staining and FACS analysis. C. Graphical representation of the orthotopic animal experiment. D. MRI imaging of brains 29 days post-intravenal treatment start with DMSO (1.05%), Retro-Tf-D-LP4 (10 mg/kg) encapsulated in PLGA nanoparticles or Tf-D-Retro-LP4 peptide (10 mg/Kg), as described in Materials and Methods available online in Supplemental information. E. Calculated tumor volumes after 20 (dark grey bars) and 29 (light grey bars) days post-treatment start. Results = mean ± SE (n = 6) (* p<0.05, *** p<0.001). F. Kaplan-Meier survival curves showing statistically significant differences in survival curves between the PBS/DMSO and Retro-Tf-D-LP4 treated mice. Cumulative Kaplan-Meier survival curves of control mice (red line), Retro-Tf-D-LP4 peptide (10mg/kg) encapsulated in PGLA nanoparticles (black line, ** p=0.006) or Retro-Tf-D-LP4 peptide (10 mg/kg, pink line, *** p=0.0003). The arrow indicates the end of the peptide treatment (day 46).
For the intracranial-orthotopic xenograft mouse model, U-87MG cells (8×10^4) were engrafted into a nude mouse brain using a stereotactic device. Forty eight hours after surgery, mice were randomized into three groups (6 animals/group) and treated every third day with DMSO (1.44%), Retro-Tf-D-LP4 (10mg/Kg) or Retro-Tf-D-LP4 (10mg/Kg) encapsulated by PLGA. Mice were subjected to MRI, sacrificed; brains were excised and processed for IHC. Tumor volume was analyzed using VivoQuant 2.10 software.
PLGA encapsulation of the VDAC1-based minutes using an UltraMicroPump III (World Precision peptide Retro-Tf-D-LP4 Instruments, Sarasota, FL). After infusion, the needle was left in place for 1 minute before slow withdrawal. The burr […]
100% DMSO and then diluted 20-fold with sterile DDW into three groups (6 animals/group) and treated every to reach a concentration of 25 mg/ml in a final DMSO third day with DMSO (1.44%), Retro-Tf-D-LP4 (10 concentration of 5%. PLGA (50 mg) was dissolved in mg/kg) or Retro-Tf-D-LP4 (10 mg/kg) encapsulated by acetone (1 ml). […] Tumor volume was analyzed using VivoQuant 2.10 10 ml of aqueous solution containing 1% PVA (w/v). […]
of the experiments, the mice were sacrificed, tumors were IHC of tumor tissue sections excised and ex vivo weight was determined. […]

SMILES: CC[C@H](C)[C@H](NC(=O)[C@H](Cc1ccc(O)cc1)NC(=O)[C@@H]1CCCN1C(=O)[C@H](CCCNC(=N)N)NC(=O)[C@H](Cc1c[nH]cn1)NC(=O)[C@H](CO)NC(=O)[C@H](Cc1c[nH]c2ccccc12)NC(=O)[C@@H](NC(=O)[C@H](Cc1c[nH]c2ccccc12)NC(=O)[C@H](CCC(=O)O)NC(=O)[C@@H](CCCCN)NC(=O)[C@@H](CCCCN)NC(=O)[C@@H](CC(C)C)NC(=O)[C@@H](CCC(=O)O)NC(=O)[C@H](NC(=O)[C@@H](C)NC(=O)[C@H](NC(=O)[C@@H](CC(N)=O)NC(=O)[C@@H](CC(C)C)NC(=O)[C@@H](C)NC(=O)[C@@H](Cc1c[nH]c2ccccc12)NC(=O)[C@H](NC(=O)[C@@H](C)NC(=O)CNC(=O)[C@@H](CC(N)=O)NC(=O)[C@@H](CO)NC(=O)[C@@H](CC(N)=O)NC(=O)[C@H](CCCCN)NC(=O)[C@H](Cc1c[nH]c2ccccc12)NC(=O)[C@@H](NC(=O)[C@H](Cc1c[nH]c2ccccc12)NC(=O)[C@@H](N)CCCCN)[C@@H](C)O)[C@H](C)O)C(C)C)[C@H](C)O)[C@@H](C)O)C(=O)N[C@@H](C)C(=O)N[C@@H](Cc1c[nH]cn1)C(=O)O [Retro-Tf-D-LP4]
- decrease in orthotopic xenograft tumor volume, day 20 (10 mg/kg i.v., every third day, 20 days after start of treatment, MRI, n = 6): 60%
- decrease in orthotopic xenograft tumor volume, day 29 (10 mg/kg i.v., every third day, 29 days after start of treatment, MRI, n = 6): 90%
- free vs PLGA-encapsulated peptide, effectiveness (intracranial model, tumor size and survival): more effective both in reducing tumor size and in prolonging mice survival
- reduction of tumor volume, maximum (Discussion) (intracranial-orthotopic xenograft, i.v., free peptide): up to 90%
